Results published in the NIST ThermoML archive (doi:10.1021/je400539h).

Experiment: xn = mol fraction of the nth substance listed
Settings: 101 kPa, Liquid

C1COCCO1 [1,4-dioxane] + CCCCCCOC(C)=O
x2 = 0
Settings | mass density [kg/m3] | speed of sound [m/s] | viscosity [mPa·s]
298.15 K | 1028.2 | 1328 | 1.159
303.15 K | 1022.7 | 1320 | 1.087
308.15 K | 1017.4 | 1312 | 1.013
313.15 K | 1011.1 | 1304 | 0.934

C=COCCCC [1-(ethenyloxy)butane] + CCCCCCOC(C)=O
Settings | mass density [kg/m3] | speed of sound [m/s] | viscosity [mPa·s]
298.15 K, x2 = 0 | 780.2 | 1096 | 0.4
298.15 K, x2 = 0.0806 | 790.9 | 1100 | 0.44
298.15 K, x2 = 0.1668 | 801.3 | 1104 | 0.486
298.15 K, x2 = 0.2521 | 810.8 | 1112 | 0.538
298.15 K, x2 = 0.3443 | 820.3 | 1120 | 0.596
298.15 K, x2 = 0.4384 | 829.2 | 1128 | 0.657
298.15 K, x2 = 0.5392 | 838.1 | 1144 | 0.726
298.15 K, x2 = 0.644 | 846.6 | 1160 | 0.798
298.15 K, x2 = 0.7555 | 854.7 | 1180 | 0.879
298.15 K, x2 = 0.8741 | 862.1 | 1204 | 0.965
303.15 K, x2 = 0 | 774.1 | 1084 | 0.387
303.15 K, x2 = 0.0806 | 784.6 | 1088 | 0.423
303.15 K, x2 = 0.1668 | 795.1 | 1088 | 0.465
303.15 K, x2 = 0.2521 | 804.8 | 1096 | 0.508
303.15 K, x2 = 0.3443 | 814.5 | 1104 | 0.559
303.15 K, x2 = 0.4384 | 823.7 | 1112 | 0.615
303.15 K, x2 = 0.5392 | 832.8 | 1124 | 0.675
303.15 K, x2 = 0.644 | 841.3 | 1140 | 0.739
303.15 K, x2 = 0.7555 | 849.5 | 1160 | 0.812
303.15 K, x2 = 0.8741 | 857.1 | 1184 | 0.891
308.15 K, x2 = 0 | 768.2 | 1072 | 0.365
308.15 K, x2 = 0.0806 | 778.6 | 1072 | 0.398
308.15 K, x2 = 0.1668 | 789.1 | 1072 | 0.434
308.15 K, x2 = 0.2521 | 798.8 | 1076 | 0.474
308.15 K, x2 = 0.3443 | 808.7 | 1084 | 0.52
308.15 K, x2 = 0.4384 | 818.1 | 1092 | 0.567
308.15 K, x2 = 0.5392 | 827.4 | 1104 | 0.622
308.15 K, x2 = 0.644 | 836.3 | 1120 | 0.681
308.15 K, x2 = 0.7555 | 844.8 | 1140 | 0.745
308.15 K, x2 = 0.8741 | 852.7 | 1164 | 0.817
313.15 K, x2 = 0 | 763.3 | 1060 | 0.354
313.15 K, x2 = 0.0806 | 773.6 | 1056 | 0.385
313.15 K, x2 = 0.1668 | 784 | 1056 | 0.418
313.15 K, x2 = 0.2521 | 793.7 | 1060 | 0.454
313.15 K, x2 = 0.3443 | 803.6 | 1064 | 0.496
313.15 K, x2 = 0.4384 | 813 | 1072 | 0.538
313.15 K, x2 = 0.5392 | 822.3 | 1084 | 0.588
313.15 K, x2 = 0.644 | 831.2 | 1100 | 0.641
313.15 K, x2 = 0.7555 | 839.7 | 1120 | 0.7
313.15 K, x2 = 0.8741 | 847.7 | 1144 | 0.763

COc1ccccc1 [anisole] + CCCCCCOC(C)=O
x2 = 0
Settings | mass density [kg/m3] | speed of sound [m/s] | viscosity [mPa·s]
298.15 K | 993.6 | 1396 | 0.97
303.15 K | 989.4 | 1380 | 0.917
308.15 K | 984.6 | 1364 | 0.863
313.15 K | 980 | 1348 | 0.803

CCCCCCOC(C)=O [hexyl ethanoate] + C1CCOC1
Settings | mass density [kg/m3] | speed of sound [m/s] | viscosity [mPa·s]
298.15 K, x1 = 0.0514 | 882.2 | 1260 | 0.485
298.15 K, x1 = 0.1091 | 882.2 | 1256 | 0.526
298.15 K, x1 = 0.1735 | 882.1 | 1248 | 0.57
298.15 K, x1 = 0.2467 | 881.7 | 1240 | 0.616
298.15 K, x1 = 0.3289 | 880.9 | 1236 | 0.669
298.15 K, x1 = 0.4241 | 879.6 | 1232 | 0.73
298.15 K, x1 = 0.5384 | 877.8 | 1232 | 0.79
298.15 K, x1 = 0.6648 | 875.5 | 1232 | 0.875
298.15 K, x1 = 0.8185 | 872.4 | 1232 | 0.967
298.15 K, x1 = 1 | 868.3 | 1236 | 1.071
303.15 K, x1 = 0.0514 | 878.8 | 1236 | 0.471
303.15 K, x1 = 0.1091 | 878.6 | 1232 | 0.504
303.15 K, x1 = 0.1735 | 878.3 | 1224 | 0.543
303.15 K, x1 = 0.2467 | 877.6 | 1212 | 0.584
303.15 K, x1 = 0.3289 | 876.6 | 1208 | 0.632
303.15 K, x1 = 0.4241 | 875.2 | 1204 | 0.683
303.15 K, x1 = 0.5384 | 873.3 | 1204 | 0.745
303.15 K, x1 = 0.6648 | 870.9 | 1204 | 0.812
303.15 K, x1 = 0.8185 | 867.7 | 1204 | 0.892
303.15 K, x1 = 1 | 863.9 | 1216 | 0.982
308.15 K, x1 = 0.0514 | 872.9 | 1216 | 0.456
308.15 K, x1 = 0.1091 | 872.7 | 1208 | 0.484
308.15 K, x1 = 0.1735 | 872.4 | 1200 | 0.518
308.15 K, x1 = 0.2467 | 871.9 | 1188 | 0.554
308.15 K, x1 = 0.3289 | 871.2 | 1184 | 0.595
308.15 K, x1 = 0.4241 | 870 | 1180 | 0.641
308.15 K, x1 = 0.5384 | 868.2 | 1180 | 0.692
308.15 K, x1 = 0.6648 | 866 | 1180 | 0.751
308.15 K, x1 = 0.8185 | 863 | 1180 | 0.819
308.15 K, x1 = 1 | 859.8 | 1196 | 0.898
313.15 K, x1 = 0.0514 | 866.7 | 1200 | 0.416
313.15 K, x1 = 0.1091 | 866.5 | 1188 | 0.444
313.15 K, x1 = 0.1735 | 866.2 | 1176 | 0.475
313.15 K, x1 = 0.2467 | 865.8 | 1168 | 0.508
313.15 K, x1 = 0.3289 | 865.2 | 1164 | 0.547
313.15 K, x1 = 0.4241 | 864.2 | 1156 | 0.591
313.15 K, x1 = 0.5384 | 862.6 | 1152 | 0.639
313.15 K, x1 = 0.6648 | 860.5 | 1152 | 0.695
313.15 K, x1 = 0.8185 | 857.8 | 1152 | 0.761
313.15 K, x1 = 1 | 855 | 1176 | 0.836

CCCCCCOC(C)=O [hexyl ethanoate] + C1COCCO1
Settings | mass density [kg/m3] | speed of sound [m/s] | viscosity [mPa·s]
298.15 K, x1 = 0.0546 | 1015 | 1312 | 1.143
298.15 K, x1 = 0.1152 | 1000.7 | 1292 | 1.131
298.15 K, x1 = 0.1825 | 985.9 | 1280 | 1.119
298.15 K, x1 = 0.2572 | 970.6 | 1268 | 1.106
298.15 K, x1 = 0.3416 | 954.6 | 1256 | 1.096
298.15 K, x1 = 0.4094 | 942.8 | 1248 | 1.093
298.15 K, x1 = 0.4773 | 931.9 | 1240 | 1.088
298.15 K, x1 = 0.5836 | 916.5 | 1236 | 1.08
298.15 K, x1 = 0.7044 | 900.8 | 1236 | 1.077
298.15 K, x1 = 1 | 868.3 | 1236 | 1.071
303.15 K, x1 = 0.0546 | 1009 | 1300 | 1.076
303.15 K, x1 = 0.1152 | 994.8 | 1280 | 1.063
303.15 K, x1 = 0.1825 | 979.9 | 1268 | 1.049
303.15 K, x1 = 0.2572 | 964.6 | 1256 | 1.037
303.15 K, x1 = 0.3416 | 948.8 | 1244 | 1.026
303.15 K, x1 = 0.4094 | 937.1 | 1236 | 1.019
303.15 K, x1 = 0.4773 | 926.4 | 1228 | 1.014
303.15 K, x1 = 0.5836 | 911.1 | 1224 | 1.005
303.15 K, x1 = 0.7044 | 895.7 | 1224 | 0.997
303.15 K, x1 = 1 | 863.9 | 1216 | 0.982
308.15 K, x1 = 0.0546 | 1003.4 | 1288 | 0.987
308.15 K, x1 = 0.1152 | 988.9 | 1268 | 0.975
308.15 K, x1 = 0.1825 | 974 | 1256 | 0.962
308.15 K, x1 = 0.2572 | 958.8 | 1244 | 0.951
308.15 K, x1 = 0.3416 | 943.2 | 1232 | 0.942
308.15 K, x1 = 0.4094 | 931.7 | 1224 | 0.935
308.15 K, x1 = 0.4773 | 921.1 | 1216 | 0.93
308.15 K, x1 = 0.5836 | 906 | 1212 | 0.921
308.15 K, x1 = 0.7044 | 890.8 | 1212 | 0.913
308.15 K, x1 = 1 | 859.8 | 1196 | 0.898
313.15 K, x1 = 0.0546 | 996.8 | 1280 | 0.935
313.15 K, x1 = 0.1152 | 982.2 | 1256 | 0.924
313.15 K, x1 = 0.1825 | 967.3 | 1244 | 0.912
313.15 K, x1 = 0.2572 | 952.3 | 1232 | 0.9
313.15 K, x1 = 0.3416 | 937 | 1216 | 0.889
313.15 K, x1 = 0.4094 | 925.7 | 1208 | 0.88
313.15 K, x1 = 0.4773 | 915.2 | 1204 | 0.874
313.15 K, x1 = 0.5836 | 900.3 | 1200 | 0.864
313.15 K, x1 = 0.7044 | 885.2 | 1200 | 0.855
313.15 K, x1 = 1 | 855 | 1176 | 0.836

CCCCCCOC(C)=O [hexyl ethanoate] + C=COCCCC
x1 = 1
Settings | mass density [kg/m3] | speed of sound [m/s] | viscosity [mPa·s]
298.15 K | 868.3 | 1236 | 1.071
303.15 K | 863.9 | 1216 | 0.982
308.15 K | 859.8 | 1196 | 0.899
313.15 K | 855 | 1176 | 0.836
